From ChEMBL document CHEMBL4007395 (J Med Chem, 2017) come the findings set out here.

Data set [1] is described as follows: Half-life in Sprague-Dawley rat at 500 mg/kg, po by LC-MS/MS analysis. The class given is ADME, organism-based. Conditions: in vivo.
The nature of data set [2]: Oral bioavailability in Sprague-Dawley rat at 500 mg/kg by LC-MS/MS analysis. It is filed as ADME, organism-based. Conditions: in vivo.
Data set [3] is described as follows: Half-life in Tris-HCl buffer at 70 uM at pH 7.5 by UV/Vis spectrophotometric method. The class given is physicochemical.
A short description of data set [4]: Half-life in Tris-HCl buffer at 70 uM at pH 7.2 by UV/Vis spectrophotometric method. The class given is physicochemical.
Data set [5] is described as follows: Inhibition of Escherichia coli AmpC beta-lactamase using CENTA as substrate preincubated for 5 mins followed by substrate addition by UV-vis spectrophotometric method.
Data set [6] is described as follows: Inhibition of Escherichia coli AmpC beta-lactamase using CENTA as substrate preincubated for 5 mins followed by substrate addition in presence of nonionic detergent Triton-X-100 by UV-vis spectrophotometric method.
Data set [7] can be described thus: Inhibition of malate dehydrogenase (unknown origin) using oxaloacetate as substrate preincubated for 5 mins followed by substrate addition by UV-vis spectrophotometric method. Details: species or system Homo sapiens.
Data set [8] is described as follows: Inhibition of malate dehydrogenase (unknown origin) using oxaloacetate as substrate preincubated for 5 mins followed by substrate addition in presence of nonionic detergent Triton-X-100 by UV-vis spectrophotometric method. Details: species or system Homo sapiens.
The nature of data set [9]: Inhibition of HIV-2 protease using anthranilyl-HIV protease as substrate preincubated for 5 mins followed by substrate addition by fluorescence assay. Details: species or system Human immunodeficiency virus 2.
A short description of data set [10]: Inhibition of HIV-2 protease using anthranilyl-HIV protease as substrate preincubated for 5 mins followed by substrate addition in presence of nonionic detergent Triton-X-100 by fluorescence assay. Details: species or system Human immunodeficiency virus 2.
Data set [11] is described as follows: Apparent permeability in human Caco2 cells. The note with it: Caco-2. The class given is ADME, cell-based. In general terms: Passage across Caco-2 layers is used to estimate intestinal permeability.
In data set [12] the target is Glycogen synthase kinase-3 beta (Rattus norvegicus, UniProt P18266). Briefly: Inhibition of recombinant rat N-terminal GST-tagged GSK3beta expressed in Escherichia coli assessed as reduction in tau phosphorylation preincubated for 30 mins followed by tau protein addition measured after 1 hr by ELISA.
The next data set concerns Mus musculus. The data set is described as follows: Cmax in mouse at 100 mg/kg, po after 30 mins. The note with it: in vivo, 0.5 h. Details: dose 100 mg/kg, route oral. The class given is ADME, organism-based.
The nature of data set [13]: Cmax in human at 12 g, po administered as single dose capsule after 2 hrs by UV-HPLC method. The class given is ADME, organism-based. Details: dose 12 g, route oral. Conditions: in vivo.
Data set [14] in a line: Drug uptake in human rectal mucosa assessed per gram protein at 2 g/day for 30 days. It is filed as ADME. Conditions: 720 h.
Data set [15] can be described thus: Drug uptake in human rectal mucosa assessed per gram protein at 4 g/day for 30 days. The class given is ADME. Conditions: 720 h.
Data set [16] relates to Plasma. The data set is described as follows: Plasma concentration in human at 8 g/day, po by HPLC/TMS. The class given is ADME, organism-based. Conditions: in vivo.
The species named for data set [17] is Homo sapiens. The data set is described as follows: Effect on total aberrant foci number in human colon cancer patient at 2 g/day for 30 days during phase IIa study by colonoscopic analysis. The class given is functional.
The species entered for data set [18] is Homo sapiens. Briefly: Effect on total aberrant foci number in human colon cancer patient at 4 g/day for 30 days during phase IIa trial by colonoscopic analysis. It is filed as functional.
Data set [19] is described as follows: Plasma concentration in human at 3.6 g, po administered as capsule measured at 1 hr post dose by UV-RP-HPLC method. The class given is ADME, organism-based.
The test system of data set [20] is Plasma. The data set is described as follows: Drug metabolism in human plasma assessed as curcumin sulfate formation at 3.6 g, po administered as capsule measured at 1 hr post dose by UV-HPLC-MS analysis. The class given is ADME, organism-based. Conditions: in vivo.
For data set [21], the system named is Plasma. Briefly: Drug metabolism in human plasma assessed as curcumin glucuronide formation at 3.6 g, po administered as capsule measured at 1 hr post dose by UV-HPLC-MS analysis. Conditions: in vivo. The class given is ADME, organism-based.

Sequence of Glycogen synthase kinase-3 beta (P18266 whole entry): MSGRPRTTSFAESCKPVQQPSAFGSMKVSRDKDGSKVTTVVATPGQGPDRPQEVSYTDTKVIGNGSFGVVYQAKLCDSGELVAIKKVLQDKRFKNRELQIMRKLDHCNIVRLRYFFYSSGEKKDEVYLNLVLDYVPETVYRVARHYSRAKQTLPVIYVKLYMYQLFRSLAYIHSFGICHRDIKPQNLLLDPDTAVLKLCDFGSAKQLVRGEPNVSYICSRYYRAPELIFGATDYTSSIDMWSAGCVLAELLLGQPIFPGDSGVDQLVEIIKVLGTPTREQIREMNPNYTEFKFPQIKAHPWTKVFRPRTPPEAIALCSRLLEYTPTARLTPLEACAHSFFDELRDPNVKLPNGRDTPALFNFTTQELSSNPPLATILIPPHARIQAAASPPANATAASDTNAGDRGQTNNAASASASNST

For `COc1cc(/C=C/C(=O)CC(=O)/C=C/c2ccc(O)c(OC)c2)ccc1O` [CURCUMIN], the half-life in [1] was below 5 min. In [2], this compound had a bioavailability below 1%. Further, the half-life at 70 µM in data set [3] is 20 min; in data set [4], below 10 min. Also, the IC50 in data set [5] is 12 µM; in data set [6] it was above 30 µM; in data set [7], 9 µM; in data set [8], above 30 µM; in [9], 9 µM; in data set [10], above 100 µM. The IC50 in [12] was 0.066 µM. Also, in data set [11], the Papp came out at 3.18 ×10⁻⁶ cm/s. In addition, the Cmax in the data set on Mus musculus turned out to be 60 nM; in [13], 57.6 ng/mL. Further, the Drug uptake in data set [14] came to 8.2 µg; in data set [15], 3.8 µg. For the same compound, the Cp in the data set with Plasma [16] was 22 to 41 ng/mL. The results for the Activity in the data set listed under Homo sapiens [17] and in the data set listed under Homo sapiens [18] were 0 and 6, respectively. This compound also returned a concentration at 1 h in [19] of 11.1 ng/mL. Further, the Drug metabolism stood at 8.9 nmol/L in the data set with Plasma [20] and 15.8 nmol/L in the data set on Plasma [21].

A word on the half-life: it is how long it takes for the measured level to halve. Read a high half-life as slow decline. For orientation: bioavailability means dose-corrected exposure relative to a reference, in per cent. Broadly, the IC50 is the concentration that inhibits the measured activity by half. A word on the Papp: it is a coefficient for how fast a substance crosses the barrier. By Cmax is commonly meant the peak of the concentration-time curve.
